From paper PMC11881918, “Kir7.1 is the physiological target for hormones and steroids that regulate uteroplacental function” (Science Advances, 2025)

What was measured:
Assay type in all cases: cell-based
Kir7.1 (hKir7.1) [1] = target: T1, Kir7.1 (hKir7.1) (Homo sapiens, UniProt O60928); test: whole-cell patch clamp, dose response of current potentiation at -80 mV; parameters: gene KCNJ13; recombinant hKir7.1 (pIRES2-eGFP-hKir7.1) in HEK293 cells and HUtSMCs
T1 sequence (O60928 1-360): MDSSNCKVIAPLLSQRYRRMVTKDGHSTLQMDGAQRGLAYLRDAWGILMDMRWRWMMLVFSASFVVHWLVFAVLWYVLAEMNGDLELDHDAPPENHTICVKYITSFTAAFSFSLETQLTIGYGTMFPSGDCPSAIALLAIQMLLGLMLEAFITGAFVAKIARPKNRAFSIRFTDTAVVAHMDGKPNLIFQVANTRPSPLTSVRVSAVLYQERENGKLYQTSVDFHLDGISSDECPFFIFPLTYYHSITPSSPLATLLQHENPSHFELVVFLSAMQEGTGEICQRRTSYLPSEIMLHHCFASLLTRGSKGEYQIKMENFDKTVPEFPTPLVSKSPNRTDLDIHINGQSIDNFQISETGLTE

murine Kir7.1 = target: T2, murine Kir7.1 (Mus musculus, UniProt P86046); test: whole-cell patch clamp, dose response of current potentiation
T2 construct: gene Kcnj13; recombinant murine Kir7.1 in HEK293 cells
T2 sequence (P86046 1-360): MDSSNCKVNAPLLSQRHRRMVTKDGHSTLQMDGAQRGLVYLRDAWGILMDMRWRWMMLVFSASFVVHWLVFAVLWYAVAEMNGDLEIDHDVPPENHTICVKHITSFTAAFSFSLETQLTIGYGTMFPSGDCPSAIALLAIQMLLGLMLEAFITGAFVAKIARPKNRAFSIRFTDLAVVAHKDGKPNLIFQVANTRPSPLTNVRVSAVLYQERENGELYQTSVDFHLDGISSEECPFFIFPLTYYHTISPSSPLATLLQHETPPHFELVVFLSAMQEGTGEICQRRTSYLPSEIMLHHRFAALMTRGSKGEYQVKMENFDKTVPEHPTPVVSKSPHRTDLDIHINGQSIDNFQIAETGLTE

Kir7.1 (hKir7.1) [2] = target: T1, Kir7.1 (hKir7.1); test: whole-cell patch clamp, inhibition of P4-activated current; parameters: gene KCNJ13; recombinant hKir7.1 in HEK293 cells

Row | Structure (SMILES) | EC50 (Kir7.1 (hKir7.1) [1]) | EC50 (murine Kir7.1) | IC50 (Kir7.1 (hKir7.1) [2]) [µM]
1 | CC(=O)[C@H]1CC[C@H]2[C@@H]3CCC4=CC(=O)CC[C@]4(C)[C@H]3CC[C@]12C [P4, progesterone] | ~ 9.4 and 11.5 μM | ~ 9.4 and 11.5 μM | 
2 | C[C@]12CC[C@@H]3c4ccc(O)cc4CC[C@H]3[C@@H]1CC[C@@H]2O [E2, 17β-estradiol] |  |  | 8.6
